Assay results as given in patent US20180263975A1, “Methods Of Treating Motor And Movement Disorders And Side Effects Thereof Associated with Parkinson's Disease Treatments” (AMARANTUS BIOSCIENCE HOLDINGS, INC., priority 2015, published 2018).
“Also recorded” adds a separate entry of the source.

Key:
[1] = test system: Parkinson's patients with L-DOPA induced dyskinesias; experiment: Clinical Dyskinesia Rating Scale (CDRS) rating of L-DOPA induced dyskinesia after a levodopa challenge dose; format: in vivo, human
Text: (§1) This example describes a multicenter, randomized, double-blind, placebo-controlled, dose finding study of oral eltoprazine in Parkinson's patients with L-DOPA induced dyskinesias, in a levodopa challenge-dose setting in Parkinson's Disease. A total of 22 patients participated in the study, out of which 18 patients fulfilled the protocol in terms of eligibility, interventions, and outcome assessment.
During the first visit, patients underwent screening for inclusion/exclusion criteria and safety assessments. Symptoms of parkinsonism, depression, and anxiety were assessed, and screening for significant L-DOPA dyskinesias were conducted using a challenge dose (150%) of L-DOPA. Subjects who were taking a prohibited medication were required to complete a washout period of appropriate length, as determined by the investigator. […]
(§2) During each of five visits, and after a two-hour fast, each patient received a challenge dosage (150%—up to a maximum of 250 mg) of levodopa. […] The patients were periodically recorded for 180 minutes after treatment, and the videos were evaluated in a blinded manner. […]
(§3) Filming occurred 30 minutes prior to, and every 30 minutes up to 180 minutes after a challenge test of L-DOPA and study medication. […] Videotaped records of each sequence were assessed by separate individual qualified raters at both of the two clinical centers. […]

[2] = test system: Parkinson's patients with L-DOPA induced dyskinesias; experiment: UPDRS-III rating of parkinsonian symptoms (levodopa efficacy) after a levodopa challenge dose; format: in vivo, human; conditions: 5 mg and 7.5 mg doses
Text: as §1, §2
Filming occurred 30 minutes prior to, and every 30 minutes up to 180 minutes after a challenge test of L-DOPA and study medication. […] Videotaped records of each sequence were assessed by separate individual qualified raters at both of the two clinical centers.
Analyses were done on both the intention-to-treat (ITT) and per protocol (PP) population, if applicable. The change between test sessions of the highest observed Unified Parkinson's Disease Rating Scale-III (UPDRS) within each session will be calculated between the randomized placebo test session and each active test session and will be analyzed with Wilcoxon Signed Rank test on the ITT population.

[3] = test system: Parkinson's patients with L-DOPA induced dyskinesias; experiment: Rush Dyskinesia Rating Scale AUC after a levodopa challenge dose; format: in vivo, human; conditions: 5 mg dose
Text: as §1, with “assessment. […]” for “assessment.”
During each of five visits, and after a two-hour fast, each patient received a challenge dosage (150%—up to a maximum of 250 mg) of levodopa. […] The patients were periodically recorded for 180 minutes after treatment, and the videos were evaluated in a blinded manner.
The term “Rush Dyskinesia Rating Scale” and “Rush DRS” refer to an observer-based rating scale based on fixed movements. The numerical parts of the Rush DRS are recorded separately from the descriptive parts, as described by Goetz et al., in Movement Disorders, Vol. 9, No. 4, 1994, 390-394.
as §3

[4] = test system: Parkinson's patients with L-DOPA induced dyskinesias; experiment: Safety and tolerability in the dose finding study; format: in vivo, human; conditions: single oral doses 2.5, 5, 7.5 mg in PD patients
Text: This study also assessed the safety and tolerability of eltoprazine in adults with Parkinson's Disease using the following measures: a) population mean values for the change in dyskinesia ratings between the placebo and screening baseline values and any of the eltoprazine dosages used, calculated as the peak-effect on CDRS of any study medication; b) population mean values for the change in dyskinesia ratings between the placebo and screening baseline values and any of the eltoprazine dosages used, calculated as the AuC on Rush DRS of any study medication; c) any changes in the UPDRS-III total score; d) any change in the diary data set, between the baseline and placebo and any of the three study medication tests; e) any deterioration of the HADS scores after study medication compared with placebo; f) any development of depression over the course of the study period, determined by the Montgomery Asberg Depression Rating Scale (MADRS) and clinical judgment; g) comparison between the effects on Rush Dyskinesia Rating Scale (DRS) and Clinical Dyskinesia Rating Scale (CDRS) Area under the Curve (AuC) and peak of dose effects for the three study medication dosages.
After screening, each patient participated in the study for approximately 6-10 weeks. The duration of the study was about 30 weeks. […]

5-HT1a/5-HT1b receptor = conditions: cited from earlier work
5-HT1d receptor = conditions: Sijbesma 1990; cited from earlier work
dopamine receptors = conditions: cited from earlier work
[5] = Daytime plasma concentration of eltoprazine under dosing regimens

SMILES: c1cc2c(c(N3CCNCC3)c1)OCCO2 [eltoprazine, 1-(2,3-dihydro-1,4-benzodioxin-5-yl) piperazine]
- reduction of LID measured by the CDRS scale, compared to placebo ([1]; 5 mg single oral dose with 150% L-DOPA challenge, p=0.0007): statistically significantly reduced LID
- reduction of LID measured by the CDRS scale, compared to placebo ([1]; 7.5 mg single oral dose with 150% L-DOPA challenge, p=0.0467): statistically significantly reduced LID
- effect on L-DOPA efficacy measured by the UPDRS score (UPDRS-III) [2]: did not affect L-DOPA efficacy; also recorded: no significant change
- reduction of LID measured by the Rush Scale AUC [3]: reduced LID in PD patients statistically significantly
- serious adverse events [4]: no serious adverse events
- tolerability [4]: well tolerated
- affinity for 5-HT1a versus 5-HT1b receptors, mixed agonist (5-HT1a/5-HT1b receptor; Schipper 1990): roughly equipotent affinity
- receptor selectivity of binding profile (5-HT1a/5-HT1b receptor; with respect to all receptors other than 5-HT1, Sijbesma 1990): selective 5-HT1 ligand
- affinity for the 5-HT1d receptor compared with serotonin (5-HT1d receptor): lower affinity
- affinity for dopamine receptors (dopamine receptors): no relevant affinity
- daytime plasma concentration profile (FIG. 4) ([5]; 5 mg and 7.5 mg b.d. at 4 hour intervals (2.5, 5, 7.5, 10 mg compared)): optimizes daytime plasma concentration from 10 AM to 8 PM
- daytime plasma concentration profile (FIG. 3) ([5]; 7.5 mg twice daily at 4 or 6 hourly intervals (4, 6, 8, 12 h compared)): optimizes daytime plasma concentration from 10 AM to 8 PM
- plasma concentration of drug ([5]; dose of 5 mg): approximately 10 ng/ml
- plasma concentration of drug ([5]; dose of 7.5 mg): approximately 17 ng/ml
- plasma concentration profile (FIG. 5) ([5]; three times daily 2.5, 5, 7.5 mg at 4 hour intervals): achieve maximal plasma concentrations in the late afternoon/evening period into the night time
